{"source": "patent EP4582087A1", "about": "“PHARMACEUTICAL COMPOSITION FOR TREATING LYMPHOMA” (SymBio Pharmaceuticals Limited, priority 2022, dated 2024)", "key": {"EBNA1": {"tested_on": "EBNA1", "experiment": "Western blot of EBNA1 expression in lymphoma cells", "format": "cell-based", "conditions": "NK-S1 and KAI-3; 0.1 and 1 µg/mL BCV for 72 hours; Fig. 4", "description": "(§1) NK-S1 and KAI-3 cell lines were treated with 0.1 and 1 µg/mL BCV for 72 hours. Subsequently, whole-cell lysates were separated by SDS-PAGE using 4 to 15% Mini-PROTEAN™ TGX Stain-Free™ Protein Gel (Bio-Rad Laboratories, Inc., Hercules, CA, USA) and then transferred to a 0.2 µm PVDF membrane (Bio-Rad Laboratories, Inc., Hercules, California, USA). The membrane was blocked and then gently shaken overnight at 4°C in a solution containing 5% skimmed milk powder (Bio-Rad Laboratories, Inc., Hercules, CA, USA) or 5% bovine serum albumin (Sigma-Aldrich, Darmstadt, Germany), TBST solution (50 mM Tris/HCl, pH 7.4, 150 mM NaCl, 0.1% Tween-20), and primary antibodies (anti-EBNA1 antibody (Santa Cruz Biotechnology, Inc.) and anti-LMP1 antibody (Dako)). Exposure to an appropriate HRP-conjugated anti-mouse antibody (Cytiva, Washington D.C., USA) was performed for 1 hour. Finally, chemiluminescent detection was performed using SuperSignal Substrate Western Blotting Kit (Thermo Fisher Scientific Inc., Massachusetts, USA). Imaging was performed using ChemiDoc™ XRS+ (a system with Image Lab™ software, Bio-Rad Laboratories, Inc., Hercules, California, USA)."}, "STING pathway": {"tested_on": "STING pathway", "experiment": "Whole transcriptome sequencing / GSEA / quantitative PCR, STING pathway genes", "format": "cell-based", "conditions": "NK-S1 and KAI-3; BCV 0.1 µg/mL and 1 µg/mL; Figs. 5B and 5C", "description": "(§2) BCV-treated NK-S1 and KAI-3 cell lines were subjected to sequencing of the entire transcription product. Gene set enrichment analysis (GSEA) was performed using the Molecular Signatures Database (MSigDB) Hallmark gene set. […] Quantitative PCR was performed using Maxima SYBR Green/ROX qPCR Master Mix (Thermo Scientific, USA). The ΔCt value of a gene's mRNA expression was calculated as the difference between the Ct value of the gene and that of an internal control, GAPDH. The ΔΔCt was calculated by subtracting the ΔCt value of the treatment group from the ΔCt value of an untreated control group. The fold change in expression was calculated using the formula 2^ΔΔCt."}, "NK-S1 cell line": {"tested_on": "NK-S1 cell line", "experiment": "Combined treatment cell viability (CellTiter-Glo 2.0), Chou-Talalay combination index", "format": "cell-based", "conditions": "for type of combined effect based on the combination index value: CI less than 1 indicates synergism; for effect of combined treatment compared to each drug alone: Fig. 7", "description": "NK-S1 cell line was treated with a selected dose of etoposide, gemcitabine, or gamma irradiation, with or without BCV (0.1 µg/mL). Cell viability was quantified using Promega CellTiter-Glo (registered trademark) 2.0 Cell Viability Assay (Promega Corporation, Madison, Wisconsin, USA) according to the manufacturer's protocol. A combination index (CI) was calculated using Chou-Talalay median-effect analysis to determine if the effect was synergism, an additive effect, or antagonism. Specifically, a CI value less than 1 indicates synergism, and a CI value more than 1 indicates antagonism. A CI value close to 1 (i.e., between 0.9 and 1.1) was considered indicative of an additive effect."}, "[1]": {"tested_on": "eleven NK/T lymphoma cell lines (KAI-3, NK-S1, NK-92, KHYG-1, NK-YS, MEC-04, SNK-1, SNK-6, YT, HANK-1, or SNT-8)", "experiment": "Cell viability (CellTiter-Glo 2.0), eleven NK/T lymphoma cell lines", "format": "cell-based", "conditions": "Fig. 9", "description": "The effect of BCV on cell viability was examined in eleven NK/T lymphoma cell lines (KAI-3, NK-S1, NK-92, KHYG-1, NK-YS, MEC-04, SNK-1, SNK-6, YT, HANK-1, or SNT-8). Cell viability was quantified using Promega CellTiter-Glo (registered trademark) 2.0 Cell Viability Assay (Promega Corporation, Madison, Wisconsin, USA) according to the manufacturer's protocol. In brief, cells were plated in a 96-well plate at a concentration of 2 × 10^3 cells per 100 µL of culture medium, and a drug was added at each concentration. After each time point, Promega CellTiter-Glo (registered trademark) 2.0 Cell Viability Assay reagent was added to the wells and incubated at room temperature for 10 minutes. Subsequently, […] was measured using a Tecan M200 Infinite 96-well plate reader and iControl software 1.6 (Tecan, Männedorf, Switzerland). Cell viability was calculated as a percentage of the control absorbance. A dose-response curve was generated by plotting the percentage of viable cells against the drug concentration to analyze the growth-inhibitory effect. The IC50 values were estimated using GraphPad Prism version 8.0.2 (GraphPad Software). All reactions were performed in triplicate (n = 3)."}, "Myc": {"tested_on": "Myc", "experiment": "Whole transcriptome sequencing / GSEA / quantitative PCR, Myc expression", "format": "cell-based", "conditions": "NK-S1 and KAI-3", "description": "as §2"}, "[2]": {"tested_on": "MYC-positive lymphoma cells (Raji, Daudi, VAL, BJAB, DB)", "experiment": "Cell viability (CellTiter-Glo 2.0), MYC-positive B-cell lymphoma cell lines", "format": "cell-based", "conditions": "96 hours, Fig. 8", "description": "Different B-cell lymphoma cell lines were individually treated with each concentration of BCV for 96 hours. Cell viability was quantified using Promega CellTiter-Glo (registered trademark) 2.0 Cell Viability Assay (Promega Corporation, Madison, Wisconsin, USA) according to the manufacturer's protocol. Information on the presence or absence of EBV and the molecular information were obtained by referring to a public database. The cell lines shown in Fig. 8 have been reported to be classified into groups as follows: Raji and Daudi as Burkitt's lymphoma (BL) cell lines; VAL and DB as diffuse large B-cell lymphoma (DLBCL) cell lines; and BJAB as a BL cell line or a DLBCL cell line. All of these are B lymphomas in which MYC is either translocated or amplified. Raji, Daudi, and VAL are EBV-positive cell lines, while BJAB and DB are EBV-negative cell lines. VAL is triple-hit lymphoma and DB is double-hit lymphoma."}, "[3]": {"tested_on": "EBV-positive NK/T lymphoma cells (NK-S1)", "experiment": "Cell viability (CellTiter-Glo 2.0), comparison with antiviral agents", "format": "cell-based", "conditions": "compared to acyclovir, ganciclovir, adefovir, foscarnet, and penciclovir, Fig. 2", "description": "(§3) Cell viability was determined using Promega CellTiter-Glo (registered trademark) 2.0 Cell Viability Assay (Promega Corporation, Madison, Wisconsin, USA) according to the manufacturer's protocol. Specifically, lymphoma cells were plated in a 96-well plate at a concentration of 2 × 10^3 cells per 100 µL of culture medium, and a drug (BCV) was added to each well at each concentration. At each time point, Promega CellTiter-Glo (registered trademark) 2.0 Cell Viability Assay reagent was added to the wells and incubated at room temperature for 10 minutes. Subsequently, […] was measured using a Tecan M200 Infinite 96-well plate reader and IControl software 1.6 (Tecan, Männedorf, Switzerland). Cell viability was evaluated as a percentage of a control absorbance. A dose-response curve was generated by plotting the percentage of viable cells against the drug concentration to analyze the growth-inhibitory effect. The IC50 values were estimated using GraphPad Prism version 8.0.2 (GraphPad Software). All reactions were performed in triplicate (n = 3). Furthermore, EBV positivity or EBV negativity of the cells was detected based on the presence or absence of an EBV-derived transcript (e.g., EBER, EBNA1, and the like).\nThe experimental procedure was the same as in Example 1, except that BCV, acyclovir, ganciclovir, adefovir, foscarnet, and penciclovir were used as the drugs."}, "calreticulin": {"tested_on": "calreticulin", "experiment": "Immunogenic cell death: calreticulin staining by flow cytometry", "format": "cell-based", "conditions": "NK-S1 and KAI-3; BCV 0.1 ug/mL or 1 ug/mL for 72 hours; Fig. 6", "description": "(§4) NK-S1 and KAI-3 cell lines were treated with BCV (0.1 ug/mL or 1 ug/mL) or DMSO alone for 72 hours. For calreticulin staining, cells were incubated with a calreticulin antibody (1:100, room temperature, 30 minutes) (#ab92516, Abcam Limited.) and washed prior to analysis. Then, the cells were resuspended in PBS and analyzed using a cell analyzer (BD LSR Fortessa, BD Biosciences, San Jose, CA, USA). Data were analyzed using FlowJo version 10.8.0 (BD Biosciences, San Jose, California). The extracellular level of HMGB1 in the case of BCV treatment was measured using Lumit HMGB1 immunoassay (Promega Corporation, Madison, Wisconsin, USA)."}, "[4]": {"tested_on": "NK/T lymphoma cells (KAI-3, NK-S1, KHYG-1)", "experiment": "Cell viability (CellTiter-Glo 2.0), NK/T lymphoma cell proliferation", "format": "cell-based", "conditions": "Fig. 1", "description": "as §3"}, "HMGB1": {"tested_on": "HMGB1", "experiment": "Immunogenic cell death: extracellular HMGB1 (Lumit HMGB1 immunoassay)", "format": "cell-based", "conditions": "NK-S1 and KAI-3; BCV treatment; Fig. 6", "description": "as §4"}, "LMP1": {"tested_on": "LMP1", "experiment": "Western blot of LMP1 expression in lymphoma cells", "format": "cell-based", "conditions": "NK-S1 and KAI-3; 0.1 and 1 µg/mL BCV for 72 hours; Fig. 4", "description": "as §1"}, "[5]": {"tested_on": "EBV-positive NK/T lymphoma", "experiment": "In vivo drug treatment of mice inoculated with NK-S1 cells", "design": "species or system NSG mice", "conditions": "40 mg/kg intraperitoneally twice weekly", "description": "In in vivo drug treatment with BCV, 6-week-old female NSG mice were inoculated with 0.5 × 10^6 cells (NK-S1), and BCV or a control solvent was administered intraperitoneally at a dosage of 40 mg/kg twice weekly. Tumor measurements were recorded twice weekly until the tumor size in the control group reached approximately 2000 mm^3. Mice were euthanized according to the IACUC guideline. The tumor sizes of the experimental group and the control group (n = 8 per group) were averaged at each time point (Days 1, 5, 8, 12, and 15) and compared statistically. Throughout the experiment, signs of toxicity including diarrhea and weight loss were monitored."}, "[6]": {"conditions": "BCV 0.1 µg/mL combined with etoposide"}, "[7]": {"conditions": "BCV 0.1 µg/mL combined with gemcitabine"}}}
{"smiles": "CCCCCCCCCCCCCCCCOCCCOP(=O)(O)CO[C@H](CO)Cn1ccc(N)nc1=O", "note": "[BCV, [(2S)-1-(4-amino-2-oxopyrimidin-1-yl)-3-hydroxypropan-2-yl]oxymethyl-(3-hexadecoxypropoxy)phosphinic acid]", "values": [{"measurement": "expression level of EBNA1", "setting": "EBNA1", "value": "reduced the expression level"}, {"measurement": "expression of a gene group in the STING pathway", "setting": "STING pathway", "value": "increased"}, {"measurement": "type of combined effect based on the combination index value", "setting": "NK-S1 cell line; [6]", "value": "synergistic effect"}, {"measurement": "effect of combined treatment compared to each drug alone", "setting": "NK-S1 cell line; [6]", "value": "significant enhancement of the effect"}, {"measurement": "type of combined effect based on the combination index value", "setting": "NK-S1 cell line; [7]", "value": "synergistic effect"}, {"measurement": "effect of combined treatment compared to each drug alone", "setting": "NK-S1 cell line; [7]", "value": "significant enhancement of the effect"}, {"measurement": "IC50 values", "setting": "[1]; four cell lines (KAI-3, NK-S1, NK-92, KHYG-1) versus the other seven cell lines", "value": "lower IC50 values compared to other cell lines"}, {"measurement": "sensitivity to BCV", "setting": "[1]; four cell lines (KAI-3, NK-S1, NK-92, KHYG-1)", "value": "high sensitivity to BCV"}, {"measurement": "Myc expression", "setting": "Myc; BCV 0.1 µg/mL and 1 µg/mL, Fig. 5A", "value": "significantly reduced Myc expression"}, {"measurement": "expression of a gene group controlled by MYC", "setting": "Myc; BCV-treated, Fig. 5", "value": "significantly reduced the expression of a gene group controlled by MYC"}, {"measurement": "growth-suppressive effect on EBV-positive cells and EBV-negative cells", "setting": "[2]; EBV-positive Raji, EBV-negative BJAB", "value": "strong growth-suppressive effect on both EBV-positive cells and EBV-negative cells"}, {"measurement": "cell growth-suppressive action on MYC-positive lymphoma cells", "setting": "[2]; Raji, BJAB", "value": "distinct cell growth-suppressive action"}, {"measurement": "cell growth-suppressive effect", "setting": "[3]", "value": "significantly better cell growth-suppressive effect"}, {"measurement": "number of calreticulin-positive cells", "setting": "calreticulin", "value": "clearly increased"}, {"measurement": "IC50 value of cell growth-suppressive action", "setting": "[4]; EBV-positive (KAI-3 and NK-S1) versus EBV-negative (KHYG-1) NK/T lymphoma cells", "value": "significantly lower for EBV-positive NK/T lymphoma cells (KAI-3 and NK-S1) compared to EBV-negative NK/T lymphoma cells (KHYG-1)"}, {"measurement": "proliferation of NK/T lymphoma cells", "setting": "[4]; KAI-3, NK-S1, KHYG-1", "value": "suppressed the proliferation of NK/T lymphoma cells"}, {"measurement": "release of HMGB1", "setting": "HMGB1", "value": "clearly increased"}, {"measurement": "expression level of LMP1", "setting": "LMP1", "value": "reduced the expression level"}, {"measurement": "enlargement of EBV-positive NK/T lymphoma (tumor size)", "setting": "[5]; NK-S1 in NSG mice, Days 1-15, Figs. 3A to 3D", "value": "significantly suppressed the enlargement of EBV-positive NK/T lymphoma"}, {"measurement": "animal's health status", "setting": "[5]; NSG mice", "value": "good"}, {"measurement": "signs of toxicity: diarrhea", "setting": "[5]; NSG mice", "value": "no diarrhea observed"}]}
